In PubChem BioAssay (NCI):
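Tested at 5 concentrations; 48 h exposure; 96-well plates; endpoints linearly interpolated, else capped at highest concentration. At the TGI there is no net growth.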

What was measured:
Test in all cases: NCI tumour cell line growth inhibition, 48 h
[1] = tested on: K-562 leukemia
[2] = tested on: NCI-H522 lung
[3] = tested on: MOLT-4 leukemia
[4] = tested on: RXF 393 renal
[5] = tested on: SF-539 CNS
[6] = tested on: HT29 colon
[7] = tested on: KM12 colon
[8] = tested on: HCC-2998 colon
[9] = tested on: SK-MEL-2 melanoma
[10] = tested on: ACHN renal
[11] = tested on: OVCAR-8 ovarian
[12] = tested on: M14 melanoma
[13] = tested on: T-47D breast
[14] = tested on: UACC-257 melanoma
[15] = tested on: IGROV1 ovarian
[16] = tested on: CCRF-CEM leukemia
[17] = tested on: EKVX NSCLC
[18] = tested on: NCI-H23 lung
[19] = tested on: U251 CNS
[20] = tested on: LOX IMVI melanoma
[21] = tested on: SW-620 colon
[22] = tested on: 786-0 renal
[23] = tested on: NCI-H460 lung
[24] = tested on: SF-268 CNS
[25] = tested on: HOP-92 NSCLC
[26] = tested on: MCF7 breast
[27] = tested on: RPMI-8226 leukemia
[28] = tested on: SK-MEL-28 melanoma
[29] = tested on: OVCAR-3 ovarian
[30] = tested on: HOP-62 NSCLC
[31] = tested on: SR leukemia
[32] = tested on: MDA-MB-435
[33] = tested on: SNB-19 CNS
[34] = tested on: A498 renal
[35] = tested on: MALME-3M melanoma
[36] = tested on: NCI/ADR-RES ovarian
[37] = tested on: OVCAR-4 ovarian
[38] = tested on: UACC-62 melanoma
[39] = tested on: A549 NSCLC
[40] = tested on: HS 578T breast
[41] = tested on: DU-145 prostate
[42] = tested on: UO-31 renal
[43] = tested on: NCI-H226 lung
[44] = tested on: MDA-MB-231 breast
[45] = tested on: HL-60(TB) leukemia
[46] = tested on: CAKI-1 renal
[47] = tested on: SN12C renal
[48] = tested on: SF-295 CNS
[49] = tested on: COLO 205 colon
[50] = tested on: TK-10 renal
[51] = tested on: HCT-15 colon
[52] = tested on: SK-MEL-5 melanoma
[53] = tested on: HCT-116 colon
[54] = tested on: SK-OV-3 ovarian
[55] = tested on: MDA-N
[56] = tested on: PC-3 prostate
[57] = tested on: SNB-75 CNS

Measured: TGI

Nc1nnnn1NC(=O)NCCCl
> 10 µM: all assays above
